Values quoted from earlier work in patent US20250135014A1, “TARGETED LINEAR CONJUGATES COMPRISING POLYETHYLENEIMINE AND POLYETHYLENE GLYCOL AND POLYPLEXES COMPRISING THE SAME” (TARGIMMUNE THERAPEUTICS AG, priority 2021, published 2025).

Target: EGFR (Homo sapiens, UniProt P00533)
Settings: Ruoslahti et al. 2012; Li et al. 2005

- Kd: 22 nM
Sequence: YHWYGYTPQNVI [GE-11]
